Source: publication PMC12316928, “Synthesis and evaluation of novel thiohydantoin derivatives for antidiabetic activity using in silico in vitro and in vivo methods” (Scientific Reports, 2025)
In brackets after ≈: the same amount, converted by molar mass. Several values for one entry are separate records, joined by “and”; a condition that tells them apart may be missing. Equal values may be shown once. Entries after “also recorded” stand apart in the source; their conditions may differ. Read-outs that look alike come from different tables or passages of the source.

Experiments:
α-amylase = biological target: T1, α-amylase (Sus scrofa, UniProt P00690); assay: α-Amylase inhibitory activity assay (DNSA method); type: biochemical
T1 sequence (P00690 16-511): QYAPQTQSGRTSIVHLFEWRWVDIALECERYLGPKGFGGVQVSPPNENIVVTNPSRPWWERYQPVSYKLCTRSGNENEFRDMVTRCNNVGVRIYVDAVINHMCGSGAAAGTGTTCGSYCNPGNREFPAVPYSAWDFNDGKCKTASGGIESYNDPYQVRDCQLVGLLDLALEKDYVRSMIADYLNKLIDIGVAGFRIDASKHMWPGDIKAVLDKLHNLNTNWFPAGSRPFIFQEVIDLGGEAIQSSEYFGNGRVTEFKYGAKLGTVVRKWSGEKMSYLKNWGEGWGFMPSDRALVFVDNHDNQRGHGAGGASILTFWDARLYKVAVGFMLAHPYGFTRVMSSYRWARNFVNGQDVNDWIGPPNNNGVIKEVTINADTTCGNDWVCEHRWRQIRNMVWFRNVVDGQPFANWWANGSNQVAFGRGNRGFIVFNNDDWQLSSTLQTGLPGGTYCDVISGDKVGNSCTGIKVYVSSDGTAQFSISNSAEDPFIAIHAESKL
Procedure: The inhibitory potential of the synthesized derivatives against α-amylase was determined using the DNSA (3,5-dinitrosalicylic acid) colorimetric method, as reported by Bernfeld[37]. The α-amylase enzyme (from Sigma-Aldrich) was prepared in 20 mM sodium phosphate buffer (pH 6.9). […] After incubation, 100 µL of DNSA reagent was added, and the mixture was heated at 85 °C for 15 min. The reaction was stopped by cooling, and the absorbance was measured at 595 nm. A blank control was prepared to adjust background absorbance, and the percentage inhibition was calculated.

3T3 fibroblast cell line = assay: Cytotoxicity MTT assay; type: cell-based
Procedure: (§1) The cytotoxic effects of the selected compounds were evaluated against the 3T3 fibroblast cell line (Sigma-Aldrich, product no. 90020107) using the MTT (3-(4,5-dimethylthiazol-2-yl)−2,5-diphenyl tetrazolium bromide) assay, following the protocol established by Mosmann[38]. A cell suspension containing 1 × 10⁵ cells per well was seeded into a 96-well plate and incubated at 37 °C with 5% CO₂ for 48 h. The cells were then treated with different concentrations of test compounds (4, 16, 63, 250, and 1000 µg/mL, dissolved in DMSO) and incubated for an additional 48 h. Following incubation, 180 µL of MTT solution (5 mg/mL in PBS) was added to each well and incubated for 4 h. The formazan crystals formed were solubilized, and absorbance was measured at 570 nm using an ELISA reader. Celecoxib was used as a positive control.

Cytotoxicity MTT assay = type: cell-based; conditions: mouse, 3T3 fibroblast cells, 48 h, Mean ± SD, n = 3, read-out: IC₅₀ cytotoxicity MTT
Procedure: as §1

[1] = system: STZ-induced diabetic rats; assay: Fasting blood glucose and oral glucose tolerance test (OGTT); type: in vivo, Sprague Dawley rats; conditions: for OGTT (after 120 min): 120 min after glucose 2.0 g/kg; for Fasting blood glucose: Table 7, mean ± SD, 5 rats per group; for FBG and OGTT reduction in words: compared to diabetic control
Procedure: […] After 5 days of streptozotocin injection, the tail vein blood will be collected to determine the fasting blood glucose (FBG) level. Only rats with FBG over 200 mg/dl will be considered diabetic and used for further experimentation.
This assay will be performed in animals after fasting for an overnight (12 h). Then, rats will receive a bolus of glucose (2.0 g/kg body weight) followed by test molecule or control and plasma glucose will be measured from blood collected from tail vein at 0, 30, 60, 90 and 120 min after glucose administration. Plasma glucose levels will be analyzed using commercially available glucometer kits[40].

[2] = biological target: T2, α-glucosidase (EC3.2.1.20) (Saccharomyces cerevisiae, UniProt P53341); assay: α-Glucosidase inhibitory activity assay; type: biochemical; conditions: for inhibition at 200 µg/mL: read-out: %Inhibition (200 µg/ml) alpha glucosidase
T2 construct: purchased Sigma-Aldrich
T2 sequence (P53341 whole entry): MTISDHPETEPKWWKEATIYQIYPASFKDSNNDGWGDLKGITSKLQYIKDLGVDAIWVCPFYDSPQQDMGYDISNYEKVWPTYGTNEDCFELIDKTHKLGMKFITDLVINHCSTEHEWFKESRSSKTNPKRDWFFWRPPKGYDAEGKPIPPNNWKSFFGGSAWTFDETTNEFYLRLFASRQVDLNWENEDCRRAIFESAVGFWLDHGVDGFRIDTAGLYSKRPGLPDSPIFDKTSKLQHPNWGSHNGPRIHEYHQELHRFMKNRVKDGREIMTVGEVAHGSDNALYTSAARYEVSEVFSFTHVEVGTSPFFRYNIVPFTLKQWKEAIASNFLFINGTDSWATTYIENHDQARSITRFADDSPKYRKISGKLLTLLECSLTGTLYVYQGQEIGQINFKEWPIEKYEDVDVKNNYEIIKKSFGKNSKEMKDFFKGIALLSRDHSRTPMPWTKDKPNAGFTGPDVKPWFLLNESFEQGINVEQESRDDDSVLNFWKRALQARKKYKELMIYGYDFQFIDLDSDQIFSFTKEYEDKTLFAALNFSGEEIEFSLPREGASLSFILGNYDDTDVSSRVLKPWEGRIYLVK
Procedure: The ability of the synthesized compounds to inhibit α-glucosidase was determined as per the method described by[35]. […] After incubation at 37 °C for 10 min, the reaction was initiated by adding 25 µL of substrate (4 mM) and further incubating at 37 °C for 20 min. The absorbance was measured at 405 nm.

[3] = DPPH free radical scavenging assay
Procedure: The antioxidant activity of synthesized compounds was evaluated using the DPPH free-radical scavenging assay, following the methodology outlined by[34]. This assay is based on the principle that the stable free radical DPPH undergoes a color change from deep purple to yellow upon reduction, indicating hydrogen donation from antioxidant compounds. Different concentrations (3.12, 6.25, 12.5, 25, 50, 100, and 200 µg/mL) of test compounds were prepared in methanol. A 200 µL aliquot of each concentration was mixed with 50 µL of freshly prepared DPPH solution (0.659 mM). The reaction mixtures were incubated at room temperature for 20 min in the dark. Absorbance was recorded at 510 nm using an ELISA microplate reader. Trolox was employed as the reference antioxidant, and the percentage of inhibition was calculated using the following equation:
% Inhibition = [(A0 − A1)/A0] × 100.
Where A0 is the absorbance of the control, and A1 is the absorbance of the sample[34].

[4] = system: STZ-induced diabetic rats; assay: Effect on FBG, body weight and HbA1C over 6 weeks; type: in vivo, Sprague Dawley rats; set-up: % Reduction in FBG: concentration or dose not given beside the values
Procedure: (§2) Diabetes will be induced in rats (n = 6 per group) by a single intraperitoneal injection of 60-100 mg/kg body weight (BW) streptozotocin dissolved in normal saline. After 5 days of streptozotocin injection, the tail vein blood will be collected to determine the fasting blood glucose (FBG) level. Only rats with FBG over 200 mg/dl will be considered diabetic and used for further experimentation.
Diabetic Rats (n = 6 per group) will be randomly assigned to groups of six animals each in order to examine the impact of synthetic derivatives on FBG level, BW, and HbA1C. The course of treatment will last for six weeks. At the beginning of the experiment and at weekly intervals during the first 42 days of therapy, the FBG level and BW will be measured. Rats will be denied food for 12 h while fasting, but they will have unrestricted access to water. Commercial glucose oxidase kits will be used to measure the blood glucose level. Blood 7 will be collected through cardiac puncture at the end of study period and levels of HbA1C will be determined. Metformin will be used as standard for comparison purpose.

[5] = system: STZ-induced diabetic rats; assay: Physiological parameters (lipid profile); type: in vivo, Sprague Dawley rats; conditions: Fig. 1
Procedure: as §2
Animals will be sacrificed after […] of treatment and parameters including LDL, triglycerides, HDL cholesterol, and glucose will be determined by using KONELAB SYSTEM (Thermo Fisher Scientific, Finland) according to manufacturer’s guidelines.

Row | Compound | alpha-amylase inhibition in words (α-amylase) | Cytotoxicity category (3T3 fibroblast cell line) | IC50 at 48 h (Cytotoxicity MTT assay) | OGTT (after 120 min) [1] | Fasting blood glucose [1] | FBG and OGTT reduction in words [1] | alpha-glucosidase inhibition in words [2] | DPPH free radical scavenging % inhibition ([3]; 3.12 µg/mL) | DPPH free radical scavenging % inhibition ([3]; 6.25 µg/mL) | DPPH free radical scavenging % inhibition ([3]; 12.5 µg/mL) | DPPH free radical scavenging % inhibition ([3]; 25 µg/mL) | DPPH free radical scavenging % inhibition ([3]; 50 µg/mL) | DPPH free radical scavenging % inhibition ([3]; 100 µg/mL) | DPPH free radical scavenging % inhibition ([3]; 200 µg/mL) | inhibition at 200 µg/mL [2] | also measured
1 | C[C@H]1O[C@H](O[C@H]2[C@H](O)[C@@H](O)[C@@H](O[C@H]3[C@H](O)[C@@H](O)C(O)O[C@@H]3CO)O[C@@H]2CO)[C@H](O)[C@@H](O)[C@@H]1N[C@H]1C=C(CO)[C@@H](O)[C@H](O)[C@H]1O (some centres unmarked) [Acarbose, reference compound] | – | – | – | – | – | – | – | – | – | – | – | – | – | – | – | %Inhibition alpha amylase (α-amylase; positive control Acarbose 50 µg/ml, Mean ± SD): 92.23 ± 1.08%
2 | Cc1ccc(S(=O)(=O)N2CC(=O)NC2=S)cc1 [FP3, 1-(4-methylbenzene-1-sulfonyl)−2-sulfanylideneimidazolidin-4-one] | lack of inhibition | Low cytotoxicity | 722 ± 15.3 µg/mL (≈ 2670 µM) | 320.8 ± 11.3 mg/dL | 255.7 ± 9.0 mg/dL | minor reductions | inactive | 9.2 ± 0.9% | 18.5 ± 1.4% | 27.9 ± 1.8% | 38.3 ± 2.1% | 45.7 ± 2.3% | 51.2 ± 2.5% | 55.8 ± 2.7% | – | inhibition at 200 µg/mL ([2]; sample concentration 200 µg/ml, Mean ± SD): 29.4 ± 1.08%
3 | Cc1ccc(S(=O)(=O)N2CC(=O)NC2=S)cc1C(=O)O [FP5, 2-methyl-5-(4-oxo-2-sulfanylideneimidazolidine-1-sulfonyl)benzoic acid] | – | Low cytotoxicity | 690 ± 13.2 µg/mL (≈ 2190 µM) | 295.3 ± 9.9 mg/dL | 236.1 ± 8.1 mg/dL | significant reductions | inactive | 17.8 ± 1.2% | 29.6 ± 1.7% | 44.5 ± 2.3% | 58.7 ± 2.6% | 69.3 ± 2.9% | 73.1 ± 3.1% | 78.9 ± 3.3% | 33.2 ± 0.87% | BW (Day 0) ([4]; Day 0, baseline): 216.8 ± 8.1 g; FBG (Day 0) ([4]; Day 0, baseline): 281.0 ± 9.9 mg/dL; % Change in BW ([4]; Day 0 to Day 42): −7.7%; % Reduction in FBG ([4]; Day 0 to Day 42): 21.6%; BW (Day 42) ([4]; Day 42 of treatment): 200.1 ± 8.5 g; FBG (Day 42) ([4]; Day 42 of treatment): 220.2 ± 9.2 mg/dL; HbA1C ([4]; end of 6-week treatment): 7.8% and 7.8 ± 0.3%; percentage reduction in FBG ([1]; relative to positive control (diabetic rats), Fig. 2): 16.3%; lipid profile effect in words [5]: moderate improvements; IC₅₀ (concentration required to inhibit 50% of DPPH free radicals) [3]: 58.1 ± 2.6 µg/mL
4 | O=C1CN(S(=O)(=O)c2cc(C(=O)O)ccc2Cl)C(=S)N1 [FP7, 4-chloro-3-(4-oxo-2-sulfanylideneimidazolidine-1-sulfonyl)benzoic acid] | lack of inhibition | negligible cytotoxicity; also recorded: Non-toxic | > 900 µg/mL | 325.0 ± 11.6 mg/dL | 258.2 ± 9.4 mg/dL | minor reductions | inactive | 7.6 ± 0.7% | 14.8 ± 1.0% | 21.5 ± 1.4% | 30.2 ± 1.8% | 39.5 ± 2.0% | 43.7 ± 2.3% | 47.2 ± 2.5% | 27.3 ± 0.91% | IC₅₀ cytotoxicity MTT (3T3 fibroblast cell line; 48 h, Mean ± SD, n = 3): > 1000 ± 0.0 µg/mL
